Each structure is given as a SMILES string. pKi: −log10 of the molar value.

Sequence of Carbonic anhydrase 2 (P00921 whole entry): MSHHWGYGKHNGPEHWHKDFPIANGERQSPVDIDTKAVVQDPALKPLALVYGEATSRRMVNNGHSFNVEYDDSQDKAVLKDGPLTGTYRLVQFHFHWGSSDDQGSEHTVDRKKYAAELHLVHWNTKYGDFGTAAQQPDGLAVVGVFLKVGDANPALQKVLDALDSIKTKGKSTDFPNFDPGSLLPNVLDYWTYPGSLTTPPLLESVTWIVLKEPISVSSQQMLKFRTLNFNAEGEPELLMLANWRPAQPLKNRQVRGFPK

This experiment addresses Carbonic anhydrase 2 (Bos taurus, UniProt P00921). Description: Displacement of DNSA from CAII in bovine erythrocytes.
`NS(=O)(=O)c1ccc(C(=O)OC/C=C/COC(=O)c2ccccc2)cc1` gave a pKi of 8.33.

As for `C=CCCCOC(=O)c1ccc(S(N)(=O)=O)cc1`, the negative logarithm of the Ki (pKi) was 8.11.

Take `NS(=O)(=O)c1ccc(C(=O)OC/C=C\COC(=O)c2ccc(S(N)(=O)=O)cc2)cc1`: the pKi was 8.03. This pKi and that of the compound before are within 0.2 log units of each other. The compound `NS(=O)(=O)c1ccc(C(=O)OC/C=C\CO)cc1` had a pKi of 8.04. In turn, `C=CCOC(=O)c1ccc(S(N)(=O)=O)cc1` gave a pKi of 8.07. In turn, `NS(=O)(=O)c1ccc(C(=O)OC/C=C/CO)cc1` had a pKi of 8.28. `NS(=O)(=O)c1ccc(C(=O)OC/C=C/COC(=O)c2ccc(S(N)(=O)=O)cc2)cc1` gave a pKi of 8.31.

Broadly, the pKi is the Ki on a negative log10 scale, so that one unit is a factor of ten.
